Experimental data reported in ChEMBL document CHEMBL1201862, “PubChem BioAssay data set” (2004).
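Following 48 hours of exposure in 96-well plates, responses at five concentrations were used to interpolate endpoints linearly. GI50: concentration for 50% inhibition of growth.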 Active and inactive are the calls of the source. Rule as the data show it: active = GI50 up to about 1.1 µM and inactive = higher.

Assays:
Experiment in all cases: NCI anticancer screen, dose series, 48 h
[1] = system: OVCAR-5
[2] = system: NCI-H226
[3] = system: HOP-62
[4] = system: HL-60
[5] = system: Malme-3M
[6] = system: SF-295
[7] = system: HT-29
[8] = system: PC-3
[9] = system: RXF 393
[10] = system: HCT-116
[11] = system: SNB-19
[12] = system: HCC 2998
[13] = system: OVCAR-3
[14] = system: MOLT-4
[15] = system: ACHN
[16] = system: TK-10
[17] = system: MDA-N
[18] = system: EKVX
[19] = system: SR
[20] = system: HOP-92

SMILES | GI50 [1] | GI50 [2] | GI50 [3] | GI50 [4] | GI50 [5] | GI50 [6] | GI50 [7] | GI50 [8] | GI50 [9] | GI50 [10] | GI50 [11] | GI50 [12] | GI50 [13] | GI50 [14] | GI50 [15] | GI50 [16] | GI50 [17] | GI50 [18] | GI50 [19] | GI50 [20]
CC1CC(N)=Nc2ccccc2N1 (stereo not given) | > 100 µM (inactive) | > 100 µM (inactive) | > 100 µM (inactive) | > 100 µM (inactive) | 58.2 µM (inactive) | > 100 µM (inactive) | > 100 µM (inactive) | > 100 µM (inactive) | > 100 µM (inactive) | > 100 µM (inactive) | > 100 µM (inactive) | > 100 µM (inactive) | > 100 µM (inactive) | > 100 µM (inactive) | > 100 µM (inactive) | > 100 µM (inactive) | > 100 µM (inactive) | > 100 µM (inactive) | – | –
C/C(=N\O)c1ccc(Nc2nc3ccccc3c3occc23)cc1 | 8.3 µM (inactive) | 2.33 µM (inactive) | 11.3 µM (inactive) | 2.29 µM (inactive) | 19.9 µM (inactive) | 3.4 µM (inactive) | 1.15 µM (inactive) | 10.6 µM (inactive) | – | 4.89 µM (inactive) | 16.1 µM (inactive) | 4.1 µM (inactive) | 12.4 µM (inactive) | 3 µM (inactive) | 9.82 µM (inactive) | 2.9 µM (inactive) | 11.8 µM (inactive) | 21.7 µM (inactive) | 2.37 µM (inactive) | 6.78 µM (inactive)
CCOC(=O)CO/N=C\C1=CC(=O)C2CC1C2(C)C (stereo not given) | > 100 µM (inactive) | > 100 µM (inactive) | – | > 100 µM (inactive) | > 100 µM (inactive) | > 100 µM (inactive) | > 100 µM (inactive) | > 100 µM (inactive) | > 100 µM (inactive) | > 100 µM (inactive) | > 100 µM (inactive) | – | > 100 µM (inactive) | > 100 µM (inactive) | > 100 µM (inactive) | > 100 µM (inactive) | > 100 µM (inactive) | > 100 µM (inactive) | – | –
Cc1cccc(/C=N/NC(=S)NCCc2ccccn2)n1 | 46.7 µM (inactive) | 16.1 µM (inactive) | 18 µM (inactive) | 15.6 µM (inactive) | 47.6 µM (inactive) | 24.6 µM (inactive) | 27.9 µM (inactive) | 35.2 µM (inactive) | – | 31.8 µM (inactive) | 37.1 µM (inactive) | 42.2 µM (inactive) | 48 µM (inactive) | 18.9 µM (inactive) | 13.3 µM (inactive) | 71.4 µM (inactive) | 60.8 µM (inactive) | 38.2 µM (inactive) | 28.4 µM (inactive) | 22.3 µM (inactive)
COc1cc2c(c(O)c1OC)CC1CCC(=O)N1C2c1cccc2ccccc12 (stereo not given) | 19.1 µM (inactive) | – | 20.8 µM (inactive) | 0.813 µM (active) | 21.8 µM (inactive) | 18.6 µM (inactive) | 18.2 µM (inactive) | 15.6 µM (inactive) | – | 20.4 µM (inactive) | 15.6 µM (inactive) | 16 µM (inactive) | 22.2 µM (inactive) | 26.1 µM (inactive) | 29.3 µM (inactive) | 39.4 µM (inactive) | 16.3 µM (inactive) | 22.3 µM (inactive) | > 100 µM (inactive) | 14.1 µM (inactive)
COc1ccc(/C=C2/S/C(=N\c3ccccc3)N(NC(=O)Cc3ccccc3)C2=O)cc1 | > 100 µM (inactive) | > 100 µM (inactive) | > 100 µM (inactive) | > 100 µM (inactive) | – | > 100 µM (inactive) | > 100 µM (inactive) | – | > 100 µM (inactive) | > 100 µM (inactive) | > 100 µM (inactive) | > 100 µM (inactive) | > 100 µM (inactive) | > 100 µM (inactive) | > 100 µM (inactive) | > 100 µM (inactive) | > 100 µM (inactive) | > 100 µM (inactive) | – | > 100 µM (inactive)
Cc1ccc(N2C(=O)C(O)=C(C(=O)C(C)(C)C)C2c2ccc([N+](=O)[O-])cc2)cc1 (stereo not given) | 49.2 µM (inactive) | 19.1 µM (inactive) | 17.3 µM (inactive) | 12.3 µM (inactive) | 19 µM (inactive) | 20.9 µM (inactive) | 17.6 µM (inactive) | 29.9 µM (inactive) | – | 16 µM (inactive) | 19.4 µM (inactive) | 17.7 µM (inactive) | 19.6 µM (inactive) | 7.26 µM (inactive) | 16.6 µM (inactive) | 36.2 µM (inactive) | 26 µM (inactive) | 26.9 µM (inactive) | 7.53 µM (inactive) | 13.7 µM (inactive)
c1ccc(CNc2ncnc3nn[nH]c23)cc1 | > 100 µM (inactive) | > 100 µM (inactive) | > 100 µM (inactive) | > 100 µM (inactive) | > 100 µM (inactive) | > 100 µM (inactive) | > 100 µM (inactive) | > 100 µM (inactive) | > 100 µM (inactive) | > 100 µM (inactive) | > 100 µM (inactive) | > 100 µM (inactive) | > 100 µM (inactive) | > 100 µM (inactive) | > 100 µM (inactive) | > 100 µM (inactive) | > 100 µM (inactive) | > 100 µM (inactive) | – | 56.8 µM (inactive)
CC(=O)NNC1=NN(C(C)=O)C2(S1)C(=O)Nc1ccc(Br)cc12 (stereo not given) | > 100 µM (inactive) | > 100 µM (inactive) | > 100 µM (inactive) | > 100 µM (inactive) | > 100 µM (inactive) | > 100 µM (inactive) | > 100 µM (inactive) | > 100 µM (inactive) | > 100 µM (inactive) | > 100 µM (inactive) | > 100 µM (inactive) | > 100 µM (inactive) | > 100 µM (inactive) | > 100 µM (inactive) | > 100 µM (inactive) | > 100 µM (inactive) | – | > 100 µM (inactive) | > 100 µM (inactive) | 65.5 µM (inactive)
CC(=O)c1c2c(cc3c1CC1(Cc4cc5c(cc4C1)C(=O)CCC5)C3)CCCC2 (stereo not given) | 35.2 µM (inactive) | 3.5 µM (inactive) | 5.09 µM (inactive) | 1.82 µM (inactive) | 6.64 µM (inactive) | 8.24 µM (inactive) | 3.25 µM (inactive) | 5.53 µM (inactive) | – | 14.4 µM (inactive) | 13.8 µM (inactive) | 12.5 µM (inactive) | 7.59 µM (inactive) | 2.59 µM (inactive) | 2.97 µM (inactive) | 16.5 µM (inactive) | 2.87 µM (inactive) | > 23.8 µM (inactive) | 2.48 µM (inactive) | 2.55 µM (inactive)
COc1ccc(S(=O)(=O)O)cc1NS(=O)(=O)c1ccc(C)cc1 | > 100 µM (inactive) | > 100 µM (inactive) | > 100 µM (inactive) | > 100 µM (inactive) | – | > 100 µM (inactive) | > 100 µM (inactive) | > 100 µM (inactive) | – | > 100 µM (inactive) | > 100 µM (inactive) | – | > 100 µM (inactive) | > 100 µM (inactive) | > 100 µM (inactive) | > 100 µM (inactive) | > 100 µM (inactive) | > 100 µM (inactive) | > 100 µM (inactive) | –
O=C(O)C1CC(c2ccccc2)=NN1c1ccccc1 (stereo not given) | > 100 µM (inactive) | 36.8 µM (inactive) | > 100 µM (inactive) | 89.7 µM (inactive) | 32.5 µM (inactive) | 64.6 µM (inactive) | 34.2 µM (inactive) | 41 µM (inactive) | 87.1 µM (inactive) | 66.7 µM (inactive) | > 100 µM (inactive) | 24.1 µM (inactive) | 42 µM (inactive) | 31.7 µM (inactive) | 91.6 µM (inactive) | 64 µM (inactive) | 99.5 µM (inactive) | 24 µM (inactive) | – | 69.3 µM (inactive)
O=C(CCN1CCCC1)Nc1ccc2sc3ccccc3c(=O)c2n1 | 12.9 µM (inactive) | 13.8 µM (inactive) | 12.3 µM (inactive) | 10.3 µM (inactive) | 13.1 µM (inactive) | 14.8 µM (inactive) | 4.35 µM (inactive) | 13.5 µM (inactive) | – | 11.5 µM (inactive) | 13.1 µM (inactive) | 12.3 µM (inactive) | 14.5 µM (inactive) | 4.72 µM (inactive) | 11.5 µM (inactive) | > 10 µM (inactive) | 13.4 µM (inactive) | 12.4 µM (inactive) | 8.89 µM (inactive) | 18.1 µM (inactive)
COc1cc2cc(C(=O)N3CC(CCl)c4ccc(O)cc43)[nH]c2c(OC)c1OC (stereo not given) | 0.129 µM (active) | 0.0168 µM (active) | 0.00363 µM (active) | 0.00647 µM (active) | 0.00344 µM (active) | 0.000285 µM (active) | 0.00104 µM (active) | – | < 0.0001 µM (active) | < 0.0001 µM (active) | 0.00406 µM (active) | 0.000593 µM (active) | 0.0031 µM (active) | 0.000865 µM (active) | < 0.0001 µM (active) | 0.0408 µM (active) | < 0.01 µM (active) | 0.0513 µM (active) | 0.0034 µM (active) | 0.0292 µM (active)
C[C@@H]1O[C@@H](O[C@H]2CC[C@]3(C=O)[C@H]4CC[C@]5(C)[C@@H](C6=CC(=O)OC6)CC[C@]5(O)[C@@H]4CC[C@]3(O)C2)[C@H](O)[C@H](O)[C@H]1O [CONVALLATOXIN] | 4.24e-05 µM (active) | 5.35e-05 µM (active) | 1.05e-05 µM (active) | 3.42e-05 µM (active) | 3.71e-05 µM (active) | 2.73e-05 µM (active) | 4.78e-05 µM (active) | 2.62e-05 µM (active) | 1.67e-05 µM (active) | < 0.01 µM (active) | 0.0178 µM (active) | < 0.01 µM (active) | 8.91e-06 µM (active) | 6.01e-06 µM (active) | 9.73e-06 µM (active) | 2.88e-05 µM (active) | 4.3e-05 µM (active) | 9.51e-06 µM (active) | – | 4.83e-05 µM (active)
